Assays:
serotonergic neurons = conditions: cited from earlier work
5-HT transporter [1] = molecular target: T1, 5-HT transporter (Rattus norvegicus, UniProt P31652); experiment: Inhibition of 3H-5-HT uptake in CV-1 cells transfected with the 5-HT transporter cDNA; type: cell-based; conditions: for inhibition of 5-HT uptake (in words): CV-1 cells transfected with 5HTT cDNA
5-HT transporter [2] = conditions: cited from earlier work
5-HT transporter [3] = molecular target: T1, 5-HT transporter; experiment: 3H-5-HT uptake (saturation kinetics, ion dependence) in CV-1 cells transfected with the 5HTT cDNA; type: cell-based; conditions: read-out: Km of 3H-5-HT uptake; transfected CV-1 cells; 3H-5-HT 0.1 nM to 10 uM; 15 min; mean +/- SEM

T1 sequence (P31652 whole entry): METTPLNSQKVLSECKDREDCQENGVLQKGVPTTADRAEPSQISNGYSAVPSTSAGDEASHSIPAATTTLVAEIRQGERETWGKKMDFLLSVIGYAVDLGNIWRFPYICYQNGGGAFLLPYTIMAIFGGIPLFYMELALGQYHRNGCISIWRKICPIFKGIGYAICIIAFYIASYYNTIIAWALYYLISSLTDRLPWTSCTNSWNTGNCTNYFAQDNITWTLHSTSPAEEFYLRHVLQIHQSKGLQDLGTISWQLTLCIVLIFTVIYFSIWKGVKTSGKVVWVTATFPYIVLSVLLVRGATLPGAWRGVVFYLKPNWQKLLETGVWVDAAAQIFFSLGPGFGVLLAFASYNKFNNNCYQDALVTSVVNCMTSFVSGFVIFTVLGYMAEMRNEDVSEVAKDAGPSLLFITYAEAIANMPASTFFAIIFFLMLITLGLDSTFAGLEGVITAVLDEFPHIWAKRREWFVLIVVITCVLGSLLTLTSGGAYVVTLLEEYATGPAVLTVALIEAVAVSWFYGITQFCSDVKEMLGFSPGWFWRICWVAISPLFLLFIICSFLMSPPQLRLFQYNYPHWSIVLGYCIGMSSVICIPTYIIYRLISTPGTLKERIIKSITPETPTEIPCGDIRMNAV

SMILES	Ki (5-HT transporter [1])	inhibition of 5-HT uptake (in words) (5-HT transporter [1])	other results
CNC(C)Cc1ccc2c(c1)OCO2 (racemic) [± MDMA, 3,4-Methylenedioxy-methamphetamine]	186 ± 27 nM	potent inhibition of ^3 H-5-HT uptake	neurotoxicity to serotonergic neurons (in words) (serotonergic neurons): potent neurotoxin of serotonergic neurons which causes irreversible cell degeneration
CC(N)Cc1ccccc1 (stereo not drawn) [Amphetamine]			transport by the 5-HT transporter and release of 5-HT (in words) (5-HT transporter [2]): substrates for transport by the 5-HT transporter and stimulate release of 5-HT
NCCc1c[nH]c2ccc(O)cc12 [^3 H-5-HT, serotonin]			Km (5-HT transporter [3]): 0.529 ± 0.107 µM
COC(=O)[C@H]1[C@@H](OC(=O)c2ccccc2)C[C@@H]2CC[C@H]1N2C [cocaine]		relatively potent inhibitor of 5-HT uptake	
NCCc1ccc(O)c(O)c1 [dopamine]	> 10000 nM	ineffective at blocking 5-HT uptake	
OC1(c2ccc(Cl)cc2)c2ccccc2C2=NCCN21 (stereo not drawn) [mazindol]	548 ± 120 nM	lower affinity for the 5-HT transporter	
NC[C@H](O)c1ccc(O)c(O)c1 [noradrenaline]	> 10000 nM	ineffective at blocking 5-HT uptake	
